# Laboratory results as given in patent publication US20240269298A1, “PHOSPHONYL DERIVATIVE, AND COMPOSITION AND PHARMACEUTICAL APPLICATION THEREOF” (XIZANG HAISCO PHARMACEUTICAL CO., LTD., priority 2021, published 2024).
# pIC50: −log10 of the molar value. Where two headings read alike, the source gives them in different places.
# Assays:
# A431 (EGFR-WT) cells = test: Inhibitory activity on proliferation of A431 (EGFR-WT) cells (CTG, 72 h); format: cell-based; conditions: Homo sapiens, A-431
# Summary of the method: (§1)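 IC50 values come from S-shaped dose-survival fits of CTG signal expressed as % of vehicle. Compound exposure lasted 72 h at 37 °C with 0.1% DMSO; seeding was 3000 A431 cells/well in DMEM+10% FBS and 1000 NCI-H1975 cells/well in RPMI1640+10% FBS.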
# [1] = tested on: NCI-H1975 EGFR-L858R-T790M-C797S cells; test: Inhibitory activity on proliferation of NCI-H1975 EGFR-L858R-T790M-C797S cells (CellTiter-Glo, 72 h); format: cell-based; conditions: Homo sapiens
# Procedure: NCI-H1975 EGFR-L858R-T790M-C797S cells were cultured in an incubator at 37° C. with 5% CO2, and the culture medium was RPMI1640+10% FBS+100 μg/mL hygromycin. The cells in the logarithmic phase were collected, and the cell suspension was adjusted to an appropriate concentration with a hygromycin-free culture medium, and then plated on a 96-well plate at a density of 1500 cells/well and a volume of 90 μL. 10 μL of the compounds at different concentrations were added, and a vehicle control group (cells plus DMSO) was provided, wherein the concentration of DMSO was 0.1%. The cell culture plate was cultured in an incubator at 37° C. with 5% CO2 for 72 hours. After the incubation was completed, according to operation instructions for a CellTiter-Glo kit (Promega, G7572), 50 μL of CTG solution, which was already pre-melted and equilibrated to room temperature, was added to each well, and the mixtures were uniformly mixed for 2 min using a microplate shaker. The plate was placed at room temperature for 10 min, and then […] signal values were measured using a microplate reader (Envision 2104). […] was processed based on formula (2), and using the GraphPad Prism 5.0 software and nonlinear regression model, S-shaped dose-survival curves were plotted, and IC50 values were calculated. wherein Vsample was the readout of the drug-treated group, and Vvehicle control was the readout of the control group.
# [2] = tested on: NCI-H1975 (EGFR-L858R-T790M) cells; test: Inhibitory activity on proliferation of NCI-H1975 (EGFR-L858R-T790M) cells (CTG, 72 h); format: cell-based; conditions: Homo sapiens
# Summary of the method: as §1
# [3] = Pharmacokinetic test in mice; format: in vivo; conditions: male, ICR, mouse, po, administration i.g. (10 mg/kg), plasma
# Summary of the method: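 Male ICR mice (20-25 g), fasted 12-14 h before dosing and fed 4 h after, received a single intravenous or intragastric dose. Orbital plasma sampled from 0 to 24 h (5 min-24 h points); LC-MS/MS quantitation for PK parameters and bioavailability.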
# [4] = read-out: IC50 (value in brackets)
pIC50 (A431 (EGFR-WT) cells),pIC50 ([1]; read-out: IC50 (class symbol)),pIC50 ([1]; read-out: IC50 (value)),pIC50 ([2]; read-out: IC50 (class symbol)),"pIC50 [2, 4]",AUC(0-t) [3] [ng·h/mL],AUC [3] [ng·h/mL],half-life [3] [h],SMILES
≤ 5.00,> 6.70,7.57,> 7.00,7.82,,,,"COc1cc(N2CCC(N3CCN(CC4CCN(c5ccc6c(c5)C(=O)N(C5CCC(=O)NC5=O)C6=O)C4)CC3)CC2)c(-c2cnn(C)c2)cc1Nc1ncc(Cl)c(Nc2ccc3nccnc3c2P(C)(C)=O)n1 (centres unmarked) [Compound 6, 5-(3-((4-(1-(4-((5-chloro-4-((5-(dimethylphosphoryl)quinoxalin-6-yl)amino)pyrimidin-2-yl)amino)-5-methoxy-2-(1-methyl-1H-pyrazol-4-yl)phenyl)piperidin-4-yl)piperazin-1-yl)methyl)pyrrolidin-1-yl)-2-(2,6-dioxopiperidin-3-yl)isoindoline-1,3-dione]"
≤ 5.00,> 6.70,7.52,> 7.00,7.70,,,,"COc1cc(N2CCC(N3CCN(C4CC5(CCN(c6ccc7c(c6)C(=O)N(C6CCC(=O)NC6=O)C7=O)CC5)C4)CC3)CC2)c(-c2cnn(C)c2)cc1Nc1ncc(Cl)c(Nc2ccc3nccnc3c2P(C)(C)=O)n1 (centres unmarked) [Trifluoroacetate of compound 7, 5-(2-(4-(1-(4-((5-chloro-4-((5-(dimethylphosphoryl)quinoxalin-6-yl)amino)pyrimidin-2-yl)amino)-5-methoxy-2-(1-methyl-1H-pyrazol-4-yl)phenyl)piperidin-4-yl)piperazin-1-yl)-7-azaspiro[3.5]nonan-7-yl)-2-(2,6-dioxopiperidin-3-yl)isoindoline-1,3-dione]"
,> 6.70,7.41,> 7.00,7.85,,,,"COc1cc(N2CCC3(CCN(CC4CCN(c5ccc6c(c5)C(=O)N(C5CCC(=O)NC5=O)C6=O)CC4)CC3)CC2)c(-c2cnn(C)c2)cc1Nc1ncc(Cl)c(Nc2ccc3nccnc3c2P(C)(C)=O)n1 (centres unmarked) [Compound 9, 5-(4-((9-(4-((5-chloro-4-((5-(dimethylphosphoryl)quinoxalin-6-yl)amino)pyrimidin-2-yl)amino)-5-methoxy-2-(1-methyl-1H-pyrazol-4-yl)phenyl)-3,9-diazaspiro[5.5]undecan-3-yl)methyl)piperidin-1-yl)-2-(2,6-dioxopiperidin-3-yl)isoindoline-1,3-dione]"
≤ 5.00,> 6.70,6.87,6.30 to 7.00,6.89,62300,,,"COc1cc(N2CCC(CN3CCN(c4ccc5c(c4)C(=O)N(C4CCC(=O)NC4=O)C5=O)CC3)CC2)c(-c2cnn(C)c2)cc1Nc1ncc(Cl)c(Nc2ccc(-c3ccccc3)cc2P(C)(C)=O)n1 (centres unmarked) [Compound 65, 5-(4-((1-(4-((5-chloro-4-((3-(dimethylphosphoryl)-[1,1′-biphenyl]-4-yl)amino)pyrimidin-2-yl)amino)-5-methoxy-2-(1-methyl-1H-pyrazol-4-yl)phenyl)piperidin-4-yl)methyl)piperazin-1-yl)-2-(2,6-dioxopiperidin-3-yl)isoindoline-1,3-dione]"
≤ 5.00,> 6.70,6.82,6.30 to 7.00,6.97,,118000,12.7,"COc1cc(N2CCC(CN3CCN(c4ccc5c(c4)C(=O)N(C4CCC(=O)NC4=O)C5=O)CC3)CC2)c(-c2cnn(C)c2)cc1Nc1ncc(Br)c(Nc2ccc(-c3ccccc3F)cc2P(C)(C)=O)n1 (centres unmarked) [Compound 101, 5-(4-((1-(4-((5-bromo-4-((3-(dimethylphosphoryl)-2′-fluoro-[1,1′-biphenyl]-4-yl)amino)pyrimidin-2-yl)amino)-5-methoxy-2-(1-methyl-1H-pyrazol-4-yl)phenyl)piperidin-4-yl)methyl)piperazin-1-yl)-2-(2,6-dioxopiperidin-3-yl)isoindoline-1,3-dione]"
,6.00 to 6.30,6.15,6.30 to 7.00,6.18,,2090,1.23,"COc1cc(N2CCC(N3CCN(C(=O)CNc4cccc5c4C(=O)N(C4CCC(=O)NC4=O)C5=O)CC3)CC2)ccc1Nc1ncc(Cl)c(Nc2ccccc2P(C)(C)=O)n1 (centres unmarked) [Control compound B, reference compound]"
≤ 5.00,6.30 to 6.70,6.44,6.30 to 7.00,6.98,59200,,,"COc1cc(N2CCC(CN3CCN(c4ccc5c(c4)C(=O)N(C4CCC(=O)NC4=O)C5=O)CC3)CC2)c(-c2cnn(C)c2)cc1Nc1ncc(Br)c(Nc2ccc(-c3ccccc3)cc2P(C)(C)=O)n1 (centres unmarked) [Compound 45, 5-(4-((1-(4-((5-bromo-4-((3-(dimethylphosphoryl)-[1,1′-biphenyl]-4-yl)amino)pyrimidin-2-yl)amino)-5-methoxy-2-(1-methyl-1H-pyrazol-4-yl)phenyl)piperidin-4-yl)methyl)piperazin-1-yl)-2-(2,6-dioxopiperidin-3-yl)isoindoline-1,3-dione]"
≤ 5.00,> 6.70,7.62,> 7.00,7.92,,,,"COc1cc(N2CCC(N3CCN(CC4CCN(c5ccc6c(c5)C(=O)N(C5CCC(=O)NC5=O)C6=O)CC4)CC3)CC2)c(-c2cnn(C)c2)cc1Nc1ncc(Br)c(Nc2ccc3nccnc3c2P(C)(C)=O)n1 (centres unmarked) [Compound 18, 5-(4-((4-(1-(4-((5-bromo-4-((5-(dimethylphosphoryl)quinoxalin-6-yl)amino)pyrimidin-2-yl)amino)-5-methoxy-2-(1-methyl-1H-pyrazol-4-yl)phenyl)piperidin-4-yl)piperazin-1-yl)methyl)piperidin-1-yl)-2-(2,6-dioxopiperidin-3-yl)isoindoline-1,3-dione]"
≤ 5.00,> 6.70,7.14,6.30 to 7.00,6.96,30600,,,"COc1cc(N2CCC(CN3CCC4(CC3)CCN(c3cc5c(cc3F)C(=O)N(C3CCC(=O)NC3=O)C5=O)CC4)CC2)c(-c2cnn(C)c2)cc1Nc1ncc(Br)c(Nc2ccc(-c3ccccc3)cc2P(C)(C)=O)n1 (centres unmarked) [Compound 47, 5-(9-((1-(4-((5-bromo-4-((3-(dimethylphosphoryl)-[1,1′-biphenyl]-4-yl)amino)pyrimidin-2-yl)amino)-5-methoxy-2-(1-methyl-1H-pyrazol-4-yl)phenyl)piperidin-4-yl)methyl)-3,9-diazaspiro[5.5]undecan-3-yl)-2-(2,6-dioxopiperidin-3-yl)-6-fluoroisoindoline-1,3-dione]"
,,5.86,6.30 to 7.00,6.26,,563,1.54,"COc1cc(N2CCC(N3CCN(CCOCC#Cc4cccc5c4CN(C4CCC(=O)NC4=O)C5=O)CC3)CC2)ccc1Nc1ncc(Cl)c(Nc2ccccc2P(C)(C)=O)n1 (centres unmarked) [Control compound A, reference compound]"
≤ 5.00,,,> 7.00,7.31,4620,,,"COc1cc(N2CCC(N3CCN(CC4CCN(c5cc6c(cc5F)C(=O)N(C5CCC(=O)NC5=O)C6=O)CC4)CC3)CC2)c(-c2cnn(C)c2)cc1Nc1ncc(Cl)c(Nc2ccc(-c3ccccc3)cc2P(C)(C)=O)n1 (centres unmarked) [Compound 93, 5-(4-((4-(1-(4-((5-chloro-4-((3-(dimethylphosphoryl)-[1,1′-biphenyl]-4-yl)amino)pyrimidin-2-yl)amino)-5-methoxy-2-(1-methyl-1H-pyrazol-4-yl)phenyl)piperidin-4-yl)piperazin-1-yl)methyl)piperidin-1-yl)-2-(2,6-dioxopiperidin-3-yl)-6-fluoroisoindoline-1,3-dione]"
